Test results as given in patent US20260041649A1, “ANTI-INFLAMMATORY AGENT” (WATANABE OYSTER LABORATORY, CO., LTD., priority 2023, published 2026).

System: RAW264.7 cells stimulated with LPS
Experiment: Measurement of osteoclast formation (TRACP-positive MNCs)
Type: cell-based, mouse
Procedure: Cells (1×10^5 cells/1 ml per well in a 24-well plate) were cultured for 3 days in DMEM containing 10% FBS, 1% P/S, and 1% fungizone in the control group (1% ethanol as final concentration) and in the DHMBA-treated group (0.1, 1, 10, or 100 μM) with or without LPS (100 ng/ml). The old culture medium was replaced with fresh conditioned culture medium (0.5 ml) containing LPS and/or DHMBA, and the cells were cultured for another 3 days (FIG. 9A). Cells (1×10^5 cells/1 ml per well in a 24-well plate) were cultured for 3 days in the above DMEM culture medium with LPS (100 ng/ml) but without DHMBA. […] TRACP-positive multinucleated cells (MNCs) (with 3 or more nuclei) were counted as osteoclast-like cells under a microscope (40× magnification). […]
RAW264.7 cells (1×10^5 cells/1 ml per well in a 24-well plate) were cultured for 3 days in a DMEM culture medium containing 10% FBS, 1% P/S, and 1% fungizone in the control group (1% ethanol in the culture medium as final concentration) and the LPS-treated group (100 ng/ml in the culture medium) with or without DHMBA (0.1, 1, 10, or 100 μM). […] TRACP-positive multinucleated cells (MNCs) having three or more nuclei were counted as osteoclast-like cells under a microscope (40× magnification) (Olympus MTV-3; Olympus Corp., Tokyo, Japan). […]

For `COc1c(O)cc(CO)cc1O` [DHMBA, 3,5-dihydroxy-4-methoxybenzyl alcohol], the “LPS-enhanced osteoclast formation, late stage” value (3 days LPS 100 ng/ml alone, then 3 days LPS plus DHMBA 0.1, 1, 10 or 100 μM) was “suppressed” and the LPS-enhanced osteoclast formation (LPS 100 ng/ml and DHMBA 0.1, 1, 10 or 100 μM together for 6 days) was “suppressed”.
